The target in one assay is ADORA3 (Homo sapiens (Human), UniProt P0DMS8). Nature of the assay: Intracellular calcium release assay (FLIPR). Type of assay: cell-based. The settings on record: for EC50: CHO-K1 cells, Fluo-4, top concentration 10 μM, read-out: Cell Calcium Assay EC50; for Cell Calcium Efficacy (%): percentage of the response to NECA. How it is done:
Example 32: Intracellular Calcium Release Assay
Cell Culture: The table below lists the cell lines used that stably express the 4 subtypes of adenosine receptors, along with the growth medium used for each:
For experiments with the ADORA1- and ADORA3-expressing cells, the medium was aspirated and the cells washed twice with 10 mL DPBS. Two mL of trypsin was added and incubated at 37° C. for 1 minute. Then 10 mL of platting media was added to terminate the digestion and 1 mL of the solution was taken out for cell counting. ADORA2A- and ADORA2B-expressing cells were thawed rapidly in a 37° C. water bath. Cell suspensions were transferred to 50 mL conical tubes. Plating media was added to the 10 mL mark and then 1 mL taken out for cell counting. The 50 mL tubes containing the various types of cells were centrifuged at 1000 g. Then the supernatants were aspirated, being careful not to aspirate the cells. The cell pellets were resuspended in 3-5 mL platting media, then 0.5 mL was taken out for cell counting. Then the cell suspension was diluted to 1×10^6 cells/mL (20,000 cells per 20 μL per well) in platting medium, and cells were seeded into 384-well cell plates (Greiner-781946). The 384-well cell plate was placed in a 37° C./5% CO2 incubator (Thermo-371, Thermo Scientific) for 16-20 hours.
Preparation of the intracellular calcium imaging agent (Fluo-4 Direct™ Calcium Assay Kit, Invitrogen-F10471, Thermo Scientific): One mL of FLIPR Assay Buffer was added to 77 mg probenecid to make a 250 mM solution, which was used fresh for each day. One vial of Fluo-4 Direct™ crystals was thawed and 10 mL of FLIPR Assay Buffer was added to the vial. 0.2 mL of probenecid was added to each 10 mL vial of Fluo-Direct™ solution, such that the final assay concentration was 2.5 mM. It was vortexed, left to stand >5 min and protected from light. The dye was prepared fresh each day.
Compound Preparation: Compound plates were prepared as follows. First, the test compound was diluted to prepare a 2 mM solution and then 10-point 3-fold serial dilutions were made using ECHO (ECHO 555, LabCyte), then 900 nL was transferred to the compound plate. For all targets, the final top concentration of the test compound was […]. For agonist reference compounds, 10-point and 3-fold serial dilutions were made, then 900 nL was transferred to the assay plate. Then 30 μL of assay buffer was added to the compound plate and then the plate was centrifuged at 1000 rpm for 1 min.
FLIPR Assay: Cell plates were removed from the incubator, to which were added 20 μL 2×Fluo-4 Direct™ solution, then the plates were reincubated in a 5% CO2, 37° C. incubator for 50 min and at RT for 10 min. To run the protocol on the Fluorescent Imaging Plate Reader (FLIPR) TETRA (MD-FT0249, Molecular Devices, Inc.), 10 μL of assay buffer was transferred from the 384-well plate (Greiner-781280) to the cell plates and then the fluorescence signal was read. Then 10 μL of compound solution was transferred from the compound plate to the cell plates and the fluorescence signal was read. The “Max-Min” was calculated, starting from Read 91 to the maximum allowed. For agonists, activation %=(RLU−LC)/(HC−LC)*100, based on the following: RLU=relative light unit, 91 to maximum allowed signal; HC=average signal of the high concentration of agonist; LC=average signal of DMSO well. The data were fitted using GraphPad Prism 5, using the model “log(agonist) vs. response—Variable slope” to determine the EC50 value. The receptor efficacy of the test compound relative to the agonist NECA was calculated as a percentage (%) of the response to […]. Table 10 includes EC50 values for compounds described herein.
(Calcium flux is commonly read through the fluorescence of an indicator in the cells.)

Assay [1] concerns the target human adenosine A3 receptor (Homo sapiens (Human), UniProt P0DMS8). Nature of the assay: Intracellular cAMP levels (inhibition of forskolin-stimulated cAMP production). Type of assay: cell-based. The text has this:
Example 31: Intracellular cAMP Levels
The method followed is that published in Yates L, Clark J H, Martin T J, James S, Broadley K J, Kidd E J. Radioligand binding and functional responses of ligands for human recombinant adenosine A3 receptors. Auton Autacoid Pharmacol. 2006 April; 26(2):191-200.
Materials and Cell Culture: Adenosine deaminase was obtained from Roche (Lewes, UK). Forskolin was obtained from Sigma-Aldrich (Poole, UK). The sources of other materials are provided above in Example 1. CHO-K1 cells stably transfected with the human adenosine A3 receptor were grown in Dulbecco's modified Eagles medium with nutrient mixture F12 containing NaHCO3 and Glutamax. Media was supplemented with 10% fetal calf serum, geneticin (G418; 0.67 mg/mL), hygromycin (500 μg/mL) and adenosine deaminase (1 U/mL). Cells were maintained at 37° C. with 5% CO2 in air.
cAMP Measurements: Intracellular cAMP production was measured directly using a non-acetylation cAMP enzyme immunoassay (Amersham Biosciences, Little Chalfont, UK). Cultured CHO cells expressing human adenosine A3 receptors were allowed to plate overnight in 96-well plates in culture medium containing adenosine deaminase. Twenty-four hours later, they were incubated with adenosine analogues or compounds of the invention (0.1 nM-1 μM) for 5 min at 37° C., followed by incubation with forskolin (10 μM) for 10 min. The cells were then lysed with 200 μL of lysis reagent 1 provided with the kit for 10 min to release intracellular cAMP. Aliquots of the supernatants were then transferred to a 96-well microtitre plate coated with donkey anti-rabbit IgG; 100-μL cAMP standards (12.5-3200 fmol/well) were also added to the microtitre plate; 100 μL of rabbit anti-cAMP antibody was added to all wells and incubated at 2-5° C. for 2 h. The antiserum was made up in lysis reagent 2, which sequesters the key component in lysis reagent 1 and ensures that cAMP is free for subsequent analysis. Then 50 μL of cAMP peroxidase conjugate was added to all wells and left to incubate for 60 min at 2-5° C. to allow competition for the antibody between the un-labelled and horse radish peroxidase (HRP)-labelled cAMP. Wells were then washed with buffer and 150 μL of enzyme substrate containing 3,3′,5,5′-tetramethylbenzidine/hydrogen peroxide in 20% (v/v) dimethylformamide was added to each well and left to incubate for 60 min on a Titramax 100 microtitre plate shaker (Heidolph Instruments, Schwabach, Germany) at room temperature for color development. The reaction was stopped by the addition of 100 μL of 1 M sulfuric acid and the optical density (OD) read at 450 nm on a spectrophotometric MRX microplate reader (Dynex Technologies, Chantilly, VA, USA).
Analyses: Each sample/standard was analyzed in duplicate and the resulting OD values averaged. The percent bound (B/Bo) for each standard and sample was calculated using the following relationship: […]
where B is the specific OD for standard/sample and Bo is the specific OD for the zero standard. A standard curve was generated by plotting % B/Bo as a function of the log fmol cAMP standard per well. The fmol per well value for cAMP in each sample was then read from the graph. The results are expressed as a percent of control agonist response: (measured response/control response)*100 in the presence of the compounds of the invention. Concentration-response curves for inhibition of cAMP production were constructed for all compounds of the invention and reference compounds. The EC50 values (concentration producing a half-maximal response) were determined by non-linear regression analysis of the concentration-response curves generated with mean replicate values using Hill equation curve fitting, according to the equation:
where Y=response, A=left asymptote of the curve, D=right asymptote of the curve, C=compound concentration, and C50=EC50, and nH=slope factor. […]
For orientation: cAMP levels reflect the balance of adenylyl cyclase and phosphodiesterase activity.

As a reminder, the EC50 is the concentration that produces a half-maximal response.

Chain of ADORA3 (P0DMS8 whole entry): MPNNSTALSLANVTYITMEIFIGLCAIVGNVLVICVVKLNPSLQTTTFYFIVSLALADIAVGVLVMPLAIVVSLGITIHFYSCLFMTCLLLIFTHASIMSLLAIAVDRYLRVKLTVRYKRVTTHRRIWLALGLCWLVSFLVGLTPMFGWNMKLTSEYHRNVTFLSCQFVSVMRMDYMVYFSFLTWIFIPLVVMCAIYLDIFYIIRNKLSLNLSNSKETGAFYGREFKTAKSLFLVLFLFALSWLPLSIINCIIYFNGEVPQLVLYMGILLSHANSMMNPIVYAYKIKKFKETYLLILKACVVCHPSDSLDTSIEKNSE
Chain of human adenosine A3 receptor (P0DMS8 whole entry): as above

Regarding `O[C@@H]1[C@H](O)[C@@H]2C[C@@H]2[C@H]1n1cnc2c(NCC(F)F)nc(C#CC3CC3)nc21` [Compound 38, (1R,2R,3S,4R,5S)-4-(2-(cyclopropylethynyl)-6-((2,2-difluoroethyl)amino)-9H-purin-9-yl)bicyclo[3.1.0]hexane-2,3-diol], at ADORA3, the concentration for a half-maximal effect (EC50) came out at 14.5 nM and the “Cell Calcium Efficacy (%)” value amounted to 24.7%. The EC50 in assay [1] (CHO cells expressing human adenosine A3 receptors, forskolin 10 μM) was found to be 1.8 nM. In addition, in assay [1] (maximal response as percentage of the response produced by 100 nM IB-MECA), the “CAMP Efficacy (%)” value came to 65.1%.
With `Cc1cc(NCc2cc(F)ccc2F)c2ncn([C@H]3[C@H](O)[C@H](O)[C@@H]4C[C@@H]43)c2n1` [Compound 50, (1R,2R,3S,4R,5S)-4-(7-((2,5-difluorobenzyl)amino)-5-methyl-3H-imidazo[4,5-b]pyridin-3-yl)bicyclo[3.1.0]hexane-2,3-diol], on ADORA3, the EC50 came out at 54 nM and the “Cell Calcium Efficacy (%)” value was 12.3%.
The like results for `O[C@@H]1[C@H](O)[C@@H]2C[C@@H]2[C@H]1n1cnc2c(NCC(F)(F)F)cc(Cl)nc21` [Compound 42, (1R,2R,3S,4R,5S)-4-(5-chloro-7-((2,2,2-trifluoroethyl)amino)-3H-imidazo[4,5-b]pyridin-3-yl)bicyclo[3.1.0]hexane-2,3-diol] were, in that order, 43.4 nM and 45.8%.
The like results for `Cc1cc(COc2ccc(Cl)cc2CNc2cc(Cl)nc3c2ncn3[C@H]2[C@H](O)[C@H](O)[C@@H]3C[C@@H]32)on1` [Compound 75, (1R,2R,3S,4R,5S)-4-(5-chloro-7-((5-chloro-2-((3-methylisoxazol-5-yl)methoxy)benzyl)amino)-3H-imidazo[4,5-b]pyridin-3-yl)bicyclo[3.1.0]hexane-2,3-diol] were, in that order, no less than 10000 nM and 1.7%.
On the same counts, the results for `O[C@@H]1[C@H](O)[C@@H]2C[C@@H]2[C@H]1n1cnc2c(NCCF)cc(Cl)nc21` [Compound 41, (1R,2R,3S,4R,5S)-4-(5-chloro-7-((2-fluoroethyl)amino)-3H-imidazo[4,5-b]pyridin-3-yl)bicyclo[3.1.0]hexane-2,3-diol] are 36.7 nM and 31.3%.
For `O[C@@H]1[C@H](O)[C@@H]2C[C@@H]2[C@H]1n1cnc2c(NCCF)nc(Cl)nc21` [Compound 36, (1R,2R,3S,4R,5S)-4-(2-chloro-6-((2-fluoroethyl)amino)-9H-purin-9-yl)bicyclo[3.1.0]hexane-2,3-diol], at ADORA3, the 50% effective concentration (EC50) was found to be 9.2 nM and the “Cell Calcium Efficacy (%)” value stood at 44.9%.
The like results for `CCNc1nc(Cl)nc2c1ncn2[C@H]1[C@H](O)[C@H](O)[C@]2(C(F)F)C[C@H]12` [Compound 53, (1S,2R,3S,4R,5S)-4-(2-chloro-6-(ethylamino)-9H-purin-9-yl)-1-(difluoromethyl)bicyclo[3.1.0]hexane-2,3-diol] were, in that order, no less than 10000 nM and 0.6%.
The like results for `Cc1cc(NCC(F)F)c2ncn([C@H]3[C@H](O)[C@H](O)[C@@H]4C[C@@H]43)c2n1` [Compound 47, (1R,2R,3S,4R,5S)-4-(7-((2,2-difluoroethyl)amino)-5-methyl-3H-imidazo[4,5-b]pyridin-3-yl)bicyclo[3.1.0]hexane-2,3-diol] were, in that order, 51.2 nM and 33.1%.
On to `CCNc1cc(Cl)nc2c1ncn2[C@H]1[C@H](O)[C@H](O)[C@@H]2C[C@@H]21` [Compound 43, (1R,2R,3S,4R,5S)-4-(5-chloro-7-(ethylamino)-3H-imidazo[4,5-b]pyridin-3-yl)bicyclo[3.1.0]hexane-2,3-diol], for which, on ADORA3, the EC50 came to 5.1 nM and the “Cell Calcium Efficacy (%)” value is 50.3%.
The like results for `O[C@@H]1[C@H](O)[C@@H]2C[C@@H]2[C@H]1n1cnc2c(NCC(F)F)cc(C3CC3)nc21` [Compound 78] were, in that order, 110 nM and 7.2%.
Regarding `Cc1cc(NCCF)c2ncn([C@H]3[C@H](O)[C@H](O)[C@@H]4C[C@@H]43)c2n1` [Compound 48, (1R,2R,3S,4R,5S)-4-(7-((2-fluoroethyl)amino)-5-methyl-3H-imidazo[4,5-b]pyridin-3-yl)bicyclo[3.1.0]hexane-2,3-diol], on ADORA3, the EC50 is 37.6 nM and the “Cell Calcium Efficacy (%)” value came out at 13.1%.
The like results for `O[C@@H]1[C@H](O)[C@@H]2C[C@@H]2[C@H]1n1cnc2c(NCC(F)(F)F)nc(Cl)nc21` [Compound 37, (1R,2R,3S,4R,5S)-4-(2-chloro-6-((2,2,2-trifluoroethyl)amino)-9H-purin-9-yl)bicyclo[3.1.0]hexane-2,3-diol] were, in that order, 12.8 nM and 49.4%.
On the same counts, the results for `CCNc1cc(C)nc2c1ncn2[C@H]1[C@H](O)[C@H](O)[C@@H]2C[C@@H]21` [Compound 49, (1R,2R,3S,4R,5S)-4-(7-(ethylamino)-5-methyl-3H-imidazo[4,5-b]pyridin-3-yl)bicyclo[3.1.0]hexane-2,3-diol] are 17.1 nM and 6.8%.
As for `O[C@@H]1[C@H](O)[C@@H]2C[C@@H]2[C@H]1n1cnc2c(NCC(F)F)nc(C3CC3)nc21` [Compound 58], at ADORA3, the concentration giving a half-maximal response (EC50) amounted to 25.4 nM and the “Cell Calcium Efficacy (%)” value is reported as 14.2%.

The values are drawn from patent US20230416245A1, “ADENOSINE ANALOGS FOR THE TREATMENT OF DISEASE” (BIOINTERVENE, INC., priority 2020, published 2023).
